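Method: 48-hour compound exposure of cells in 96-well plates, five concentrations, linear interpolation of endpoints. GI50 is the concentration that inhibits growth by half.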 Active and inactive are the calls of the source. Cut-off read from the data, not from the text of the source: active = GI50 up to about 1.1 µM and inactive = higher. Residues, ends and D or L forms follow the SMILES beside them. *: point of attachment. Cbz = O=C(OCc1ccccc1)*; Boc = CC(C)(C)OC(=O)*; OSu = O=C1CCC(=O)N1O*; Bn = c1ccc(C*)cc1

Among the test systems are HOP-92; OVCAR-3; IGROV-1; EKVX; NCI-H23; ACHN; SW-620; NCI/ADR-RES; PC-3; OVCAR-5; A498; MOLT-4; COLO 205; SF-268; CAKI-1; A549; UACC-62; SK-MEL-2; HCC 2998; MDA-MB-435.
What all share (assay): NCI-60 cell line screen, 48 h

As to `NN/C(=N\S(=O)(=O)c1cc(S(=O)(=O)c2ccccc2)cs1)Nc1ccc(Cl)cc1`, the GI50 in the assay with HOP-92 was 33.3 µM (inactive); with OVCAR-3 it was 20.3 µM (inactive); in the assay on IGROV-1, 25.9 µM (inactive); with EKVX it was 13.6 µM (inactive); in the assay with NCI-H23 it was 23.8 µM (inactive); in the assay on ACHN, 27.5 µM (inactive). In addition, the GI50 in the assay on SW-620 was 47.5 µM (inactive); in the assay with NCI/ADR-RES, 29.6 µM (inactive); with PC-3 it was 23.3 µM (inactive); in the assay with OVCAR-5 it was 66.2 µM (inactive); with A498 it was 33.8 µM (inactive); with MOLT-4 it was 18.6 µM (inactive). The GI50 with COLO 205 is 19.4 µM (inactive); with SF-268, 19.9 µM (inactive); in the assay with CAKI-1, 34.1 µM (inactive); with A549, 27.2 µM (inactive); in the assay with UACC-62 it was 17.5 µM (inactive); in the assay with SK-MEL-2 it was 16.7 µM (inactive).

In the case of `C=CCCCC1(C)CCNC1=S` (stereo unspecified), the GI50 in the assay with HOP-92, in the assay with OVCAR-3, with IGROV-1, with EKVX, in the assay with NCI-H23 and in the assay with ACHN was > 100 µM (inactive) throughout. Also, the GI50 in the assay on SW-620, in the assay with HCC 2998, in the assay with MDA-MB-435, in the assay on PC-3, in the assay with OVCAR-5 and in the assay on A498 was > 100 µM (inactive) in each case. For the same compound, the GI50 is 66.5 µM (inactive) with MOLT-4; > 100 µM (inactive) with COLO 205; > 100 µM (inactive) in the assay on SF-268; > 100 µM (inactive) in the assay on CAKI-1; > 100 µM (inactive) in the assay on A549; > 100 µM (inactive) in the assay on UACC-62. Besides, in the assay on SK-MEL-2, the GI50 is > 100 µM (inactive).

Regarding `c1cc(-c2ccc(-c3ccsc3)s2)cs1`, the GI50 is > 100 µM (inactive) in the assay on HOP-92; > 100 µM (inactive) with OVCAR-3; 80.2 µM (inactive) in the assay with IGROV-1; 85.5 µM (inactive) in the assay on EKVX; 16.2 µM (inactive) with NCI-H23; 35.9 µM (inactive) in the assay with ACHN. Moreover, the GI50 in the assay on SW-620 is 44.3 µM (inactive); in the assay on HCC 2998, > 100 µM (inactive); with NCI/ADR-RES it was 30.4 µM (inactive); with MDA-MB-435, > 100 µM (inactive); with OVCAR-5, > 100 µM (inactive); in the assay with A498, 46.6 µM (inactive). Also, the GI50 was 70.6 µM (inactive) with MOLT-4; > 100 µM (inactive) with COLO 205; > 100 µM (inactive) in the assay with SF-268; 45.4 µM (inactive) in the assay with CAKI-1; 22.4 µM (inactive) with A549; 54.2 µM (inactive) with UACC-62.

Turning to `C[C@H](CSC(=O)c1ccccc1)C(=O)N1c2ccccc2C[C@H]1C(=O)O`, the GI50 is > 100 µM (inactive) in the assay with OVCAR-3; > 100 µM (inactive) in the assay with IGROV-1; > 100 µM (inactive) in the assay on EKVX; > 100 µM (inactive) in the assay with NCI-H23; > 100 µM (inactive) in the assay with ACHN; 35.2 µM (inactive) in the assay with SW-620. The GI50 was 91.8 µM (inactive) in the assay with HCC 2998; 50.6 µM (inactive) in the assay with NCI/ADR-RES; > 100 µM (inactive) in the assay on PC-3; > 100 µM (inactive) with OVCAR-5; > 100 µM (inactive) with A498; 75.7 µM (inactive) with MOLT-4. Also, the GI50 with COLO 205 was 63 µM (inactive); in the assay on SF-268, > 100 µM (inactive); in the assay on CAKI-1, > 100 µM (inactive); in the assay on A549 it was > 100 µM (inactive); in the assay on UACC-62, > 100 µM (inactive).

For the compound `C[N+](C)(C)CC(=O)N/N=C(/CC(=O)CC(C1=C(O)c2ccccc2OC1)c1ccccc1)C(=O)Nc1cccc(Cl)c1` (stereo unspecified), the GI50 with HOP-92, in the assay with OVCAR-3, in the assay with IGROV-1, in the assay with EKVX, in the assay on NCI-H23 and with ACHN was > 100 µM (inactive) each time. Moreover, the GI50 with SW-620, with HCC 2998, in the assay on NCI/ADR-RES, in the assay with PC-3, in the assay on OVCAR-5 and in the assay on A498 was > 100 µM (inactive) each time. For the same compound, the GI50 in the assay on MOLT-4, in the assay on COLO 205, with SF-268, in the assay on CAKI-1, in the assay with A549 and in the assay with UACC-62 was > 100 µM (inactive) throughout. In the assay on SK-MEL-2, the GI50 was > 100 µM (inactive).

For the compound `CC(C)[Si](OCC1CC(C[C@H]2CC(C[C@H]3C[C@@H](CO[Si](C(C)C)(C(C)C)C(C)C)OC(C)(C)O3)OC(C)(C)O2)OC(C)(C)O1)(C(C)C)C(C)C` (stereo partly specified), the GI50 in the assay with HOP-92, in the assay on OVCAR-3, with IGROV-1, in the assay with EKVX, with NCI-H23 and with ACHN was > 100 µM (inactive) each time. In addition, the GI50 in the assay on SW-620, with HCC 2998, in the assay on OVCAR-5, with A498, with MOLT-4 and with COLO 205 was > 100 µM (inactive) each time. For the same compound, the GI50 in the assay on SF-268, in the assay on CAKI-1, with A549, in the assay with UACC-62 and in the assay with SK-MEL-2 was > 100 µM (inactive) throughout.

Turning to `O=C1CCCCC/C1=C\c1ccccc1`, the GI50 in the assay with HOP-92, with OVCAR-3, in the assay on IGROV-1, in the assay with EKVX, in the assay on NCI-H23 and with ACHN was > 100 µM (inactive) throughout. The GI50 is > 100 µM (inactive) in the assay with SW-620; > 100 µM (inactive) in the assay on HCC 2998; 76 µM (inactive) in the assay on MDA-MB-435; > 100 µM (inactive) with PC-3; > 100 µM (inactive) in the assay on OVCAR-5; > 100 µM (inactive) in the assay on A498. For the same compound, the GI50 with MOLT-4 was 80.9 µM (inactive); in the assay on COLO 205, > 100 µM (inactive); in the assay with SF-268, > 100 µM (inactive); with CAKI-1 it was > 100 µM (inactive); in the assay on A549 it was > 100 µM (inactive); in the assay with UACC-62, 63.4 µM (inactive). Besides, the GI50 in the assay with SK-MEL-2 was > 100 µM (inactive).

On to `CC1CC(Nc2ccc(Br)cc2)N(C(=O)c2ccc(Br)cc2)O1` (stereo unspecified), for which the GI50 with OVCAR-3 was > 10 µM (inactive); in the assay with IGROV-1, 9.73 µM (inactive); in the assay on EKVX, > 10 µM (inactive); in the assay on NCI-H23, > 10 µM (inactive); in the assay on ACHN it was 0.678 µM (active); in the assay on SW-620, 1.31 µM (inactive). For the same compound, the GI50 in the assay with HCC 2998 is > 10 µM (inactive); in the assay with NCI/ADR-RES, 2.19 µM (inactive); in the assay on MDA-MB-435, 1.09 µM (active); in the assay with PC-3 it was 2.23 µM (inactive); in the assay with OVCAR-5 it was 6.37 µM (inactive); in the assay on MOLT-4 it was 5.74 µM (inactive). Further, the GI50 was 3.49 µM (inactive) in the assay with COLO 205; 1.25 µM (inactive) in the assay on SF-268; 4.61 µM (inactive) in the assay on CAKI-1; 3.97 µM (inactive) in the assay on A549; > 10 µM (inactive) in the assay on SK-MEL-2.

For `CC(C)(C)OC(=O)NC(Cc1ccc(OCc2ccccc2)cc1)C(=O)NC(CCCCNC(=O)OCc1ccccc1)C(=O)NC(CCCCNC(=O)OCc1ccccc1)C(=O)ON1C(=O)CCC1=O` (stereo unspecified) (Boc-Tyr(Bn)-Lys(Cbz)-Lys(Cbz)-OSu; configuration not given here), the GI50 in the assay on HOP-92 was 51.2 µM (inactive); with IGROV-1, 31.5 µM (inactive); with EKVX it was > 100 µM (inactive); in the assay with NCI-H23, 28.6 µM (inactive); with ACHN, 38.5 µM (inactive); with NCI/ADR-RES it was > 100 µM (inactive). Moreover, the GI50 in the assay with MDA-MB-435 is 33.1 µM (inactive); with OVCAR-5, 36.7 µM (inactive); in the assay on MOLT-4, > 100 µM (inactive); in the assay on COLO 205, 31.1 µM (inactive); in the assay with SF-268 it was 40.2 µM (inactive); in the assay with CAKI-1, 64.4 µM (inactive). Further, the values for the GI50 in the assay with A549, in the assay with UACC-62 and in the assay with SK-MEL-2 were > 100 µM (inactive), 15.7 µM (inactive) and 38.4 µM (inactive), respectively.

Take `CC1(C)CCc2c(cc3c(c2O)CCC(C)(C)O3)O1`: the GI50 in the assay on OVCAR-3, in the assay with IGROV-1, in the assay with EKVX, with NCI-H23, in the assay with ACHN and with SW-620 was > 100 µM (inactive) throughout. In addition, the GI50 in the assay on HCC 2998 was > 100 µM (inactive); in the assay on NCI/ADR-RES it was > 100 µM (inactive); with PC-3, 49.3 µM (inactive); in the assay on OVCAR-5, > 100 µM (inactive); with A498 it was > 100 µM (inactive); in the assay on MOLT-4 it was 62.4 µM (inactive). For the same compound, the GI50 is > 100 µM (inactive) with COLO 205; > 100 µM (inactive) with SF-268; > 100 µM (inactive) with CAKI-1; > 100 µM (inactive) in the assay on A549; > 100 µM (inactive) with UACC-62; 25.1 µM (inactive) in the assay on SK-MEL-2.

As for `CC1=CC(=O)/C(=C/NC(=S)Nc2ccc(S(N)(=O)=O)cc2)C(=O)O1`, the GI50 in the assay on HOP-92, in the assay with OVCAR-3, in the assay on IGROV-1, in the assay on EKVX, with NCI-H23 and with ACHN was > 100 µM (inactive) each time. Also, the GI50 with SW-620, with HCC 2998, in the assay with NCI/ADR-RES, in the assay on MDA-MB-435, with OVCAR-5 and in the assay with A498 was > 100 µM (inactive) in each case. The GI50 in the assay on MOLT-4, in the assay on COLO 205, in the assay on SF-268, in the assay on CAKI-1, in the assay with A549 and in the assay on UACC-62 was > 100 µM (inactive) throughout. Moreover, in the assay on SK-MEL-2, the GI50 was > 100 µM (inactive).

The values above are taken from ChEMBL document CHEMBL1201862, “PubChem BioAssay data set” (2004).
